Test results: PubChem BioAssay AID328 (DTP/NCI, 2004)
Values joined by “and” are separate entries in the source; they are usually repeats but may differ in a detail not shown here. Identical values can stand only once. Toxic doses and inconclusive results are not listed. Rule for the calls: active = survival T/C of 150% or more; inactive = T/C below 125% in these data.

Test system: BDF1 mice, P388 leukemia ip, median survival T/C
Experiment: NCI In Vivo Anticancer Drug Screen. Data for tumor model P388 Leukemia (intraperitoneal) in B6D2F1 (BDF1) mice
Settings: endpoint: median survival time, higher = longer survival
Method in brief: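 Each value expresses how treatment altered survival: treated-mouse outcome over vehicle-mouse outcome, both groups bearing the transplanted tumour.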

[1] = dose: 25.0 mg/kg/injection, schedule: Q01DX009 (ip), vehicle: saline with Tween-80
[2] = dose: 50.0 mg/kg/injection, schedule: Q01DX009 (ip), vehicle: saline with Tween-80
[3] = dose: 100.0 mg/kg/injection, schedule: Q01DX009 (ip), vehicle: saline with Tween-80
[4] = dose: 200.0 mg/kg/injection, schedule: Q01DX009 (ip), vehicle: saline with Tween-80
[5] = dose: 50.0 mg/kg/injection, schedule: Q04DX003 (ip), vehicle: saline
[6] = dose: 100.0 mg/kg/injection, schedule: Q01DX009 (ip), vehicle: saline
[7] = dose: 100.0 mg/kg/injection, schedule: Q04DX003 (ip), vehicle: saline
[8] = dose: 200.0 mg/kg/injection, schedule: Q01DX009 (ip), vehicle: saline
[9] = dose: 400.0 mg/kg/injection, schedule: Q01DX009 (ip), vehicle: saline
[10] = dose: 200.0 mg/kg/injection, schedule: Q04DX003 (ip), vehicle: saline
[11] = dose: 400.0 mg/kg/injection, schedule: Q04DX003 (ip), vehicle: saline

Measured: T/C

CCOC(=O)CCCN(c1[nH]c(C)c(C)c1C#N)S(=O)(=O)c1ccc(C)cc1
inactive: [1] 109 % of control | [2] 100 % of control | [3] 113 % of control | [4] 104 % of control | dose: 200.0 mg/kg/injection, schedule: Q04DX003 (ip), vehicle: saline with Tween-80 87 % of control | dose: 400.0 mg/kg/injection, schedule: Q04DX003 (ip), vehicle: saline with Tween-80 95 % of control

NC(=S)N/N=C/c1ccc2c(c1)OCO2
inactive: dose: 50.0 mg/kg/injection, schedule: Q04DX003 (ip), vehicle: saline with Tween-80 95 % of control | dose: 100.0 mg/kg/injection, schedule: Q04DX003 (ip), vehicle: saline with Tween-80 100 % of control

O=C1CCCN1
inactive: dose: 50.0 mg/kg/injection, schedule: Q01DX001 (ip), vehicle: saline 100 % of control | [5] 95 % of control | dose: 100.0 mg/kg/injection, schedule: Q01DX001 (ip), vehicle: saline 118 % of control | [6] 105 % of control | [7] 87 % of control | dose: 200.0 mg/kg/injection, schedule: Q01DX001 (ip), vehicle: saline 100 % of control | [8] 110 % of control | [9] 110 % of control

COc1cc2c(cc1OC)C(c1ccc(N=Cc3ccc(Cl)c(Cl)c3)cc1)N(C(=S)Nc1cc(Cl)ccc1Cl)CC2 (centres undefined)
inactive: [1] 104 % of control | [2] 93 % of control and 97 % of control | [3] 95 % of control | [4] 89 % of control

COc1ccc(NC(=O)CC(C)=O)cc1
inactive: dose: 6.25 mg/kg/injection, schedule: Q01DX009 (ip), vehicle: saline 98 % of control | dose: 12.5 mg/kg/injection, schedule: Q01DX009 (ip), vehicle: saline 91 % of control | dose: 25.0 mg/kg/injection, schedule: Q04DX003 (ip), vehicle: saline 111 % of control | dose: 50.0 mg/kg/injection, schedule: Q01DX009 (ip), vehicle: saline 108 % of control | [5] 102 % of control | [6] 110 % of control | [7] 98 % of control | [8] 106 % of control | [10] 116 % of control | [9] 98 % of control | [11] 93 % of control

CCOC(=O)/C(C#N)=C/c1ccc(O)c(OC)c1
inactive: dose: 100.0 mg/kg/injection, schedule: Q01DX009 (ip), vehicle: Klucel (hydroxypropylcellulose) (HPC) 105 % of control | dose: 100.0 mg/kg/injection, schedule: Q04DX003 (ip), vehicle: Klucel (hydroxypropylcellulose) (HPC) 95 % of control | dose: 200.0 mg/kg/injection, schedule: Q01DX009 (ip), vehicle: Klucel (hydroxypropylcellulose) (HPC) 110 % of control | dose: 200.0 mg/kg/injection, schedule: Q04DX003 (ip), vehicle: Klucel (hydroxypropylcellulose) (HPC) 100 % of control | dose: 400.0 mg/kg/injection, schedule: Q01DX009 (ip), vehicle: Klucel (hydroxypropylcellulose) (HPC) 95 % of control | dose: 400.0 mg/kg/injection, schedule: Q04DX003 (ip), vehicle: Klucel (hydroxypropylcellulose) (HPC) 100 % of control

O=C1CC(c2ccc(Br)cc2)N(c2ccc([As](=O)(O)O)cc2)C1=O (centres undefined)
inactive: dose: 3.13 mg/kg/injection, schedule: Q01DX009 (ip), vehicle: saline with Tween-80 90 % of control | dose: 6.25 mg/kg/injection, schedule: Q01DX009 (ip), vehicle: saline with Tween-80 109 % of control | dose: 12.5 mg/kg/injection, schedule: Q01DX009 (ip), vehicle: saline with Tween-80 109 % of control

O=C1C=Cc2cccc3cccc1c23
inactive: dose: 50.0 mg/kg/injection, schedule: Q04DX003 (ip), vehicle: saline sonified 95 % of control | dose: 100.0 mg/kg/injection, schedule: Q04DX003 (ip), vehicle: saline sonified 95 % of control | dose: 200.0 mg/kg/injection, schedule: Q04DX003 (ip), vehicle: saline sonified 91 % of control

O=c1cccc2n1CC1CNC[C@H]2C1
inactive: dose: 1.5 mg/kg/injection, schedule: Q01DX010 (ip), vehicle: saline 104 % of control | dose: 3.0 mg/kg/injection, schedule: Q01DX010 (ip), vehicle: saline 109 % of control | dose: 6.0 mg/kg/injection, schedule: Q01DX010 (ip), vehicle: saline 109 % of control

COc1ccc(C2c3cc4c(c(OC)c3CC(CO)C2C(=O)O)OCO4)cc1OC (centres undefined)
inactive: dose: 9.38 mg/kg/injection, schedule: Q01DX010 (ip), vehicle: water 95 % of control | dose: 18.75 mg/kg/injection, schedule: Q01DX010 (ip), vehicle: water 90 % of control | dose: 37.5 mg/kg/injection, schedule: Q01DX010 (ip), vehicle: water 90 % of control | dose: 50.0 mg/kg/injection, schedule: Q01DX001 (ip), vehicle: water 110 % of control | dose: 75.0 mg/kg/injection, schedule: Q01DX010 (ip), vehicle: water 110 % of control | dose: 100.0 mg/kg/injection, schedule: Q01DX001 (ip), vehicle: water 100 % of control | dose: 150.0 mg/kg/injection, schedule: Q01DX010 (ip), vehicle: water 115 % of control | dose: 200.0 mg/kg/injection, schedule: Q01DX001 (ip), vehicle: water 110 % of control | dose: 400.0 mg/kg/injection, schedule: Q01DX001 (ip), vehicle: water 110 % of control

Cc1ccccc1N=C(N)Nc1ccccc1C
inactive: dose: 6.25 mg/kg/injection, schedule: Q04DX003 (ip), vehicle: saline with Tween-80 105 % of control | dose: 12.5 mg/kg/injection, schedule: Q04DX003 (ip), vehicle: saline with Tween-80 94 % of control | dose: 25.0 mg/kg/injection, schedule: Q04DX003 (ip), vehicle: saline with Tween-80 100 % of control

S=C1SCN(Cc2ccccc2)CN1Cc1ccccc1
inactive: dose: 100.0 mg/kg/injection, schedule: Q01DX001 (ip), vehicle: Klucel (hydroxypropylcellulose) (HPC) 113 % of control | dose: 200.0 mg/kg/injection, schedule: Q01DX001 (ip), vehicle: Klucel (hydroxypropylcellulose) (HPC) 100 % of control | dose: 400.0 mg/kg/injection, schedule: Q01DX001 (ip), vehicle: Klucel (hydroxypropylcellulose) (HPC) 100 % of control

COC(=O)c1cc(=O)nc(NN=C2CCCCC2)s1
inactive: dose: 50.0 mg/kg/injection, schedule: Q01DX005 (ip), vehicle: saline with Tween-80 99 % of control | dose: 100.0 mg/kg/injection, schedule: Q01DX005 (ip), vehicle: saline with Tween-80 103 % of control

CC(=O)[O][Pb]([CH2]CC(C)C)([CH2]CC(C)C)[CH2]CC(C)C
inactive: dose: 0.19 mg/kg/injection, schedule: Q01DX009 (ip), vehicle: saline with Tween-80 123 % of control | dose: 0.38 mg/kg/injection, schedule: Q01DX009 (ip), vehicle: Klucel (hydroxypropylcellulose) (HPC) 94 % of control | dose: 0.38 mg/kg/injection, schedule: Q01DX009 (ip), vehicle: saline with Tween-80 111 % of control | dose: 0.75 mg/kg/injection, schedule: Q01DX009 (ip), vehicle: Klucel (hydroxypropylcellulose) (HPC) 105 % of control | dose: 0.75 mg/kg/injection, schedule: Q01DX009 (ip), vehicle: saline with Tween-80 106 % of control

CC(=O)NCCC(C)C
inactive: [7] 104 % of control | [10] 113 % of control | [11] 109 % of control

O=C(O)CNCc1ccc(F)cc1
inactive: [5] 111 % of control | [7] 120 % of control | [10] 115 % of control

NC(=O)c1ncc(-c2ccc(Cl)cc2)[nH]c1=O
inactive: [3] 95 % of control | [4] 90 % of control | dose: 400.0 mg/kg/injection, schedule: Q01DX009 (ip), vehicle: saline with Tween-80 109 % of control

CCN(CC)CCCC(C)Nc1c2ccccc2nc2c(Cl)cccc12 (centres undefined)
inactive: dose: 25.0 mg/kg/injection, schedule: Q01DX009 (ip), vehicle: saline sonified 88 % of control | dose: 50.0 mg/kg/injection, schedule: Q01DX009 (ip), vehicle: saline sonified 94 % of control
